Measured values published in patent publication US20260258032A1, “TYROSINE KINASE 2 INHIBITORS AND USES THEREOF” (BIOGEN MA INC., priority 2022, published 2026).
pIC50: −log10 of the molar value. Structures can show the parent of a compound that is named as a salt.

How the values were obtained:
JH2 domain of human Tyk2 = target: T1, JH2 domain of human Tyk2 (Homo sapiens, UniProt P29597); test: JH2 biochemical assay (TR-FRET probe displacement); format: binding
T1 construct: 10×His-tagged TYK2 JH2 domain (amino acid 575-876)
T1 sequence (P29597 575-876): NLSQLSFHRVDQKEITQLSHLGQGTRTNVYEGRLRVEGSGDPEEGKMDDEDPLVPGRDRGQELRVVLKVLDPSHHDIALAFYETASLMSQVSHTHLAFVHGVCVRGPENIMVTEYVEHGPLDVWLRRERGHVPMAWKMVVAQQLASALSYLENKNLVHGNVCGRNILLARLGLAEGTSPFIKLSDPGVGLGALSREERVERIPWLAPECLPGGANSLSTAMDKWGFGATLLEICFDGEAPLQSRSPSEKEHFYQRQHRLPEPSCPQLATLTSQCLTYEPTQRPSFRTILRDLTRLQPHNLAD
Procedure, shortened: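 10×His-tagged human TYK2 JH2 (aa 575-876, 2 nM) incubated 60 min with 2 nM fluorescent probe, 0.1 nM Tb anti-His antibody and compound (10-point 3-fold series from […] top). TR-FRET 520/495 nm ratio, falling with probe displacement, normalized and fitted to a 4-parameter logistic for IC50.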

[1] = test system: Tyk2 kinase activity on STAT4; test: pSTAT4 cell assay (MSD, NK92 cells); format: cell-based; settings: compounds 1 hr
Procedure, shortened: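 IC50 values derive from 4-parameter logistic fits of normalized percent activity against log compound concentration. Phospho-STAT was measured by MSD with anti-STAT4 antibodies after 15 min of 30 ng/mL IL2 in serum-starved NK92 cells pretreated 1 hr with compound.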

[2] = TR-FRET probe displacement, JH2 domain of human Tyk2

Row | Compound | pIC50 (JH2 domain of human Tyk2; JH2 biochemical assay) | pIC50 ([1]; stimulated 15 minutes) | pIC50 (JH2 domain of human Tyk2; [2]) | pIC50 ([1]; then stimulated 15 minutes)
1 | COCCC(=O)Nc1cc2c(cn1)C1(CC1)CN2c1ccnc(C(C)(F)F)n1 [Example 91, N-(1′-(2-(1,1-difluoroethyl)pyrimidin-4-yl)-1′,2′-dihydrospiro[cyclopropane-1,3′-pyrrolo[3,2-c]pyridin]-6′-yl)-3-methoxypropanamide] | 7.00 to 8.00 | ≤ 6.00 | – | –
2 | CC(=O)Nc1cc2c(cn1)C1(CC1)CN2c1cc(C)cc(N2CC[C@@H](C#N)C2)n1 [Example 403, (R)-N-(1′-(6-(3-cyanopyrrolidin-1-yl)-4-methylpyridin-2-yl)-1′,2′-dihydrospiro[cyclopropane-1,3′-pyrrolo[3,2-c]pyridin]-6′-yl)acetamide] | – | – | ≥ 8.00 | 6.00 to 7.00
3 | CC(=O)Nc1cc2c(cn1)C1(CC1)CN2c1cc(C2=COCC2)nc(C(C)(F)F)n1 [Example 296, N-(1′-(2-(1,1-difluoroethyl)-6-(4,5-dihydrofuran-3-yl)pyrimidin-4-yl)-1′,2′-dihydrospiro[cyclopropane-1,3′-pyrrolo[3,2-c]pyridin]-6′-yl)acetamide trifluoroacetate] | ≥ 8.00 | 6.00 to 7.00 | – | –
4 | CC(=O)Nc1cc2c(cn1)C1(CC1)CN2c1cc(C)nc(N2CCC(F)(F)C2)n1 [Example 229, N-(1′-(2-(3,3-difluoropyrrolidin-1-yl)-6-methylpyrimidin-4-yl)-1′,2′-dihydrospiro[cyclopropane-1,3′-pyrrolo[3,2-c]pyridin]-6′-yl)acetamide] | ≥ 8.00 | 6.00 to 7.00 | – | –
5 | CC(=O)Nc1cc2c(cn1)C1(CC1)CN2c1cc(C)nc(C(C)(C)F)n1 [Example 312, N-(1′-(2-(2-fluoropropan-2-yl)-6-methylpyrimidin-4-yl)-1′,2′-dihydrospiro[cyclopropane-1,3′-pyrrolo[3,2-c]pyridin]-6′-yl)acetamide] | ≥ 8.00 | 7.00 to 8.00 | – | –
6 | CC(=O)Nc1cc2c(cn1)C1(CC1)CN2c1cc(OC(C)C#N)nc(C(C)(F)F)n1 (centres unmarked) [Example 151, N-(1′-(6-(1-cyanoethoxy)-2-(1,1-difluoroethyl)pyrimidin-4-yl)-1′,2′-dihydrospiro[cyclopropane-1,3′-pyrrolo[3,2-c]pyridin]-6′-yl)acetamide trifluoroacetate] | 7.00 to 8.00 | ≤ 6.00 | – | –
7 | CC(=O)Nc1cc2c(cn1)C1(CC1)CN2c1nc(C(C)(F)F)ncc1F [Example 128, N-(1′-(2-(1,1-difluoroethyl)-5-fluoropyrimidin-4-yl)-1′,2′-dihydrospiro[cyclopropane-1,3′-pyrrolo[3,2-c]pyridin]-6′-yl)acetamide] | 7.00 to 8.00 | ≤ 6.00 | – | –
8 | COc1ccc(-c2nc(C)cc(N3CC4(CC4)c4cnc(NC(C)=O)cc43)n2)cn1 [Example 254, N-(1′-(2-(6-methoxypyridin-3-yl)-6-methylpyrimidin-4-yl)-1′,2′-dihydrospiro[cyclopropane-1,3′-pyrrolo[3,2-c]pyridin]-6′-yl)acetamide trifluoroacetate] | 6.00 to 7.00 | ≤ 6.00 | – | –
9 | CC(=O)Nc1cc2c(cn1)C1(CC1)CN2c1cc(C)nc(N2CCC2C)n1 (centres unmarked) [Example 235, N-(1′-(6-methyl-2-(2-methylazetidin-1-yl)pyrimidin-4-yl)-1′,2′-dihydrospiro[cyclopropane-1,3′-pyrrolo[3,2-c]pyridin]-6′-yl)acetamide] | ≥ 8.00 | 6.00 to 7.00 | – | –
10 | COCCOc1cc(N2CC3(CC3)c3cnc(NC(C)=O)cc32)nc(C(C)(F)F)n1 [Example 4, N-(1′-(2-(1,1-difluoroethyl)-6-(2-methoxyethoxy)pyrimidin-4-yl)-1′,2′-dihydrospiro[cyclopropane-1,3′-pyrrolo[3,2-c]pyridin]-6′-yl)acetamide] | ≥ 8.00 | 6.00 to 7.00 | – | –
11 | CC(=O)Nc1cc2c(cn1)C1(CC1)CN2c1cc(-c2cnn(CCN(C)C)c2)nc(C(C)(F)F)n1 [Example 391, N-(1′-(2-(1,1-difluoroethyl)-6-(1-(2-(dimethylamino)ethyl)-1H-pyrazol-4-yl)pyrimidin-4-yl)-1′,2′-dihydrospiro[cyclopropane-1,3′-pyrrolo[3,2-c]pyridin]-6′-yl)acetamide trifluoroacetate] | – | – | ≥ 8.00 | 7.00 to 8.00
12 | COCCC1(C#N)CN(c2nc(C)cc(N3CC4(CC4)c4cnc(NC(C)=O)cc43)n2)C1 [Example 220, N-(1′-(2-(3-cyano-3-(2-methoxyethyl)azetidin-1-yl)-6-methylpyrimidin-4-yl)-1′,2′-dihydrospiro[cyclopropane-1,3′-pyrrolo[3,2-c]pyridin]-6′-yl)acetamide] | 7.00 to 8.00 | ≤ 6.00 | – | –
13 | CC(=O)Nc1cc2c(cn1)C1(CC1)CN2c1cc(NC2CCC2)nc(C(C)(F)F)n1 [Example 157, N-(1′-(6-(cyclobutylamino)-2-(1,1-difluoroethyl)pyrimidin-4-yl)-1′,2′-dihydrospiro[cyclopropane-1,3′-pyrrolo[3,2-c]pyridin]-6′-yl)acetamide trifluoroacetate] | ≥ 8.00 | ≥ 8.00 | – | –
14 | CC(=O)Nc1cc2c(cn1)C1(CC1)CN2c1cc(C)cc(OCC2CCO2)n1 (centres unmarked) [Example 358, N-(1′-(4-methyl-6-(oxetan-2-ylmethoxy)pyridin-2-yl)-1′,2′-dihydrospiro[cyclopropane-1,3′-pyrrolo[3,2-c]pyridin]-6′-yl)acetamide trifluoroacetate] | ≤ 6.00 | ≤ 6.00 | – | –
15 | CC(=O)Nc1cc2c(cn1)C1(CC1)CN2c1cc(Oc2cnnn2C)nc(C(C)(F)F)n1 [Example 149, N-(1′-(2-(1,1-difluoroethyl)-6-((1-methyl-1H-1,2,3-triazol-5-yl)oxy)pyrimidin-4-yl)-1′,2′-dihydrospiro[cyclopropane-1,3′-pyrrolo[3,2-c]pyridin]-6′-yl)acetamide trifluorocetate] | 7.00 to 8.00 | ≤ 6.00 | – | –
16 | CC(=O)Nc1cc2c(cn1)C1(CC1)CN2c1cc(OCCN(C)C)nc(C(C)(F)F)n1 [Example 140, N-(1′-(2-(1,1-difluoroethyl)-6-(2-(dimethylamino)ethoxy)pyrimidin-4-yl)-1′,2′-dihydrospiro[cyclopropane-1,3′-pyrrolo[3,2-c]pyridin]-6′-yl)acetamide trifluoroacetate] | 7.00 to 8.00 | ≤ 6.00 | – | –
17 | CC(=O)Nc1cc2c(cn1)C1(CC1)CN2c1cc(C)cc(C23COC(C)(C2)C3)n1 [Example 306, N-(1′-(4-methyl-6-(1-methyl-2-oxabicyclo[2.1.1]hexan-4-yl)pyridin-2-yl)-1′,2′-dihydrospiro[cyclopropane-1,3′-pyrrolo[3,2-c]pyridin]-6′-yl)acetamide] | 7.00 to 8.00 | ≤ 6.00 | – | –
18 | CC(=O)Nc1cc2c(cn1)C1(CC1)CN2c1cc(C)cc(N2CC[C@H](C#N)C2)n1 [Example 402, (S)-N-(1′-(6-(3-cyanopyrrolidin-1-yl)-4-methylpyridin-2-yl)-1′,2′-dihydrospiro[cyclopropane-1,3′-pyrrolo[3,2-c]pyridin]-6′-yl)acetamide] | – | – | 7.00 to 8.00 | ≤ 6.00
19 | CC(=O)Nc1cc2c(cn1)C1(CC1)CN2c1cc(C)cc(N2CCC3(CC2)COC3)n1 [Example 208, N-(1′-(4-methyl-6-(2-oxa-7-azaspiro[3.5]nonan-7-yl)pyridin-2-yl)-1′,2′-dihydrospiro[cyclopropane-1,3′-pyrrolo[3,2-c]pyridin]-6′-yl)acetamide] | 6.00 to 7.00 | ≤ 6.00 | – | –
